Data published in patent US20190091290A1, “MACROPHAGE STIMULATION IN CD47 BLOCKADE THERAPY” (TRILLIUM THERAPEUTICS INC., priority 2016, published 2019).
Entries after “also recorded” stand apart in the source; their conditions may differ.

What was measured:
[1] = test system: M0, M2a and M2b macrophages; assay: Phagocytic response to SIRPaFc after re-polarization of M0, M2a and M2b macrophages; assay type: cell-based, human; conditions: overnight treatment with the agent; FIGS. 3A-3C
Description: Heparinized whole blood was obtained from normal healthy human donors (Biological Specialty Corporation) and informed consent was obtained from all donors. Peripheral blood mononuclear cells (PBMCs) were isolated over Ficoll-Paque Plus density gradient (GE Healthcare) and CD14+ monocytes were isolated from PBMCs by positive selection using CD14 antibody-coated MicroBead separation (Miltenyi Biotec). Monocytes were differentiated into macrophages by culturing for at least 10 days in X-Vivo-15 media (Lonza) supplemented with 20 ng/mL M-CSF (PeproTech). Macrophages were washed and were polarized into M0, M2a, and M2b by culturing one day with 20 ng/mL M-CSF, 20 ng/mL IL-4 (PeproTech) or 50 ug/mL heat aggregated human gamma globulin (HAGG) and 20 ng/mL IL-1β (PeproTech), respectively. One day following polarization, polarization media was washed off, and cells were treated with 20 ng/mL IFN-γ (PeproTech), 1000 U/mL IFNα2a (PBL Assay Science), 20 ng/mL IL-10 (PeproTech), 10 ug/mL Poly (I:C) (InvivoGen), 1 ug/mL LPS (MDBiosciences), 1 ug/mL R848 (InvivoGen), or 10 ug/mL ODN2395 CpG (InvivoGen) overnight. On the next day, macrophages were harvested using enzyme-free cell dissociation buffer (ThermoFisher) for flow-based phagocytosis assay. Human B cell lymphoma cell line, Toledo, was labeled with Violet Proliferation Dye 450 (BD Biosciences) and added to repolarized macrophages in a round-bottom non-tissue culture treated 96-well plate at a 1:5 effector:target ratio. […] Cells were acquired on a FACSVerse flow cytometer, and data was analyzed using FlowJo software (Treestar Inc.). Macrophages were identified as live, single, CD14+CD11b+ cells. Doublets were excluded by SSC-W and SSC-H discrimination. Phagocytosis was assessed as the % of macrophages that were VPD450+. Statistical significance was calculated by unpaired t-test vs isotype control using GraphPad Prism software.

[2] = test system: CD64; assay: FcγR (CD16, CD32, CD64) expression on re-polarized M0, M2a and M2b macrophages by flow cytometry; assay type: cell-based, human; conditions: overnight stimulation with the agent, FIG. 4
Description: Heparinized whole blood was obtained from normal healthy human donors (Biological Specialty Corporation) and informed consent was obtained from all donors. Peripheral blood mononuclear cells (PBMCs) were isolated over Ficoll-Paque Plus density gradient (GE Healthcare) and CD14+ monocytes were isolated from PBMCs by positive selection using CD14 antibody-coated MicroBead separation (Miltenyi Biotec). Monocytes were differentiated into macrophages by culturing for at least 10 days in X-Vivo-15 media (Lonza) supplemented with 20 ng/mL M-CSF (PeproTech). Macrophages were washed and were polarized into M0, M2a, and M2b by culturing one day with 20 ng/mL M-CSF, 20 ng/mL IL-4 (PeproTech) or 50 ug/mL heat aggregated human gamma globulin (HAGG) and 20 ng/mL IL-1β (PeproTech), respectively. One day following polarization, polarization media was washed off, and cells were treated with 20 ng/mL IFN-γ (Peprotech), 1000 U/mL IFNa2a (PBL Assay Science), 20 ng/mL IL-10 (PeproTech), 10 ug/mL Poly (I:C) (InvivoGen), 1 ug/mL LPS (MDBiosciences), 1 ug/mL R848 (InvivoGen), or 10 ug/mL ODN2395 CpG (InvivoGen) overnight. On the next day, macrophages were harvested using enzyme-free cell dissociation buffer (ThermoFisher) for analysis of CD16, CD32 and CD64 expression. Macrophages were blocked with human Fc receptor binding inhibitor (ebioscience) and were stained with Near-IR LIVE/DEAD fixable dead cell stain (Invitrogen), FITC-conjugated anti-CD16 (Clone CB16), FITC-conjugated anti-CD32 (Clone FL18.26) and V450-conjugated anti-CD64 (Clone 10.1) in three independent cocktails. Cells were washed and resuspended in stabilizing fixative (BD Biosciences), and data was acquired on a FACSVerse flow cytometry machine, and data was analyzed using FlowJo software (Treestar Inc.). Macrophages were identified as live, single cells. Doublets were excluded by SSC-W and SSC-H discrimination.

[3] = biological target: CD47 (Homo sapiens, UniProt Q08722); assay: CD47 agonism upon binding
CD47, sequence (Q08722 19-323): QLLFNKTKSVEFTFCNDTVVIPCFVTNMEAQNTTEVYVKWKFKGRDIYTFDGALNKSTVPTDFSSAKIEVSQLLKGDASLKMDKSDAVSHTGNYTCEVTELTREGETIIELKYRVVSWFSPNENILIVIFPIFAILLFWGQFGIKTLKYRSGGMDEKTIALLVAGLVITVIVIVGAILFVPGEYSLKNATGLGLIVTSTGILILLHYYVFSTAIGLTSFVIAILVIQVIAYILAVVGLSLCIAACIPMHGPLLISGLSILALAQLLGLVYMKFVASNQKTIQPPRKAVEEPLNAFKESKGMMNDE

[4] = test system: red blood cells; assay: Binding to red blood cells
[5] = test system: Human B cell lymphoma cell line, Toledo; assay: Flow-based phagocytosis assay: polarized human monocyte-derived macrophages co-cultured with Toledo tumor cells; assay type: cell-based; conditions: 1 uM SIRPaFc, FIG. 1
Description: Heparinized whole blood was obtained from normal healthy human donors (Biological Specialty Corporation) and informed consent was obtained from all donors. Peripheral blood mononuclear cells (PBMCs) were isolated over Ficoll-Paque Plus density gradient (GE Healthcare) and CD14+ monocytes were isolated from PBMCs by positive selection using CD14 antibody-coated MicroBead separation (Miltenyi Biotec). Monocytes were differentiated into macrophages by culturing for at least 10 days in X-Vivo-15 media (Lonza) supplemented with 20 ng/mL M-CSF (PeproTech). One day prior to the phagocytosis assay the monocyte-derived macrophages were either left untreated in M-CSF media (M0) or treated overnight with 20 ng/mL M-CSF and 300 ng/mL interferon-gamma (IFN-γ) (PeproTech) as M1, 50 ng/mL IFN-γ and 50 ng/mL LPS (MD Biosciences) as M1+LPS, 20 ng/mL IL-4 (PeproTech) as M2a, 20 ng/mL IL-1β (PeproTech) and 50 ug/mL heat aggregated human IgG (HAGG) as M2b or 20 ng/mL IL-10 (PeproTech) and 20 ng/mL TGF (PeproTech) as M2c. […] Cells were acquired on a FACSVerse flow cytometer, and data was analyzed using FlowJo software (Treestar Inc.). […] Doublets were excluded by SSC-W and SSC-H discrimination. % Phagocytosis was assessed as the % of macrophages that were VPD450+. Statistical significance was calculated by unpaired t-test vs isotype control using GraphPad Prism software, where p***<0.001.

[6] = test system: cancer cells that present with a CD47+ phenotype; conditions: described in WO2014/094122; cited from earlier work

Molecule: IFNα [reference compound]
- responsiveness to SIRPaFc (phagocytosis of Toledo cells) of M0, M2a and M2b macrophages after repolarization [1]: increased
- expression of CD64 on M0, M2a and M2b macrophages after repolarization [2]: increased
- expression of CD64 on M0, M2a and M2b macrophages after repolarization ([2]; listed as IFN-alpha): most striking

Molecule: polyinosine-polycytidylic acid [Poly (I:C), reference compound]
- responsiveness to SIRPaFc (phagocytosis of Toledo cells) of M0, M2a and M2b macrophages after repolarization [1]: increased
- expression of CD64 on M0, M2a and M2b macrophages after repolarization [2]: increased

Molecule: SIRPaFc: human SIRPaFc comprising the V region of human SIRPa variant 2 fused to a wild type human IgG1 Fc region, SEQ ID NO: 3
- CD47 agonism when binding thereto [3]: negligible CD47 agonism
- binding to red blood cells [4]: negligible binding
- phagocytosis of DLBCL Toledo cell line by all 6 macrophage subsets ([5]; M0, M1, M1+LPS, M2a, M2b, M2c macrophages from human PBMC, vs control Fc): increased phagocytosis
- SIRPαFc induced phagocytosis by M1 (+/−LPS) and M2c MDMs compared to M0, M2a and M2b subsets ([5]; Toledo cells): superior
- effects on the viability of CD47+ cancer cells [6]: dramatic effects

B1: IFNγ: interferon-gamma (PeproTech), macrophage stimulating cytokine (protein, UniProt P01579 24-161, looked up)
Interferon gamma: QDPYVKEAENLKKYFNAGHSDVADNGTLFLGILKNWKEESDRKIMQSQIVSFYFKLFKNFKDDQSIQKSVETIKEDMNVKFFNSNKKKRDDFEKLTNYSVTDLNVQRKAIHELIQVMAELSPAAKTGKRKRSQMLFRG
- responsiveness to SIRPaFc (phagocytosis of Toledo cells) of M0, M2a and M2b macrophages after repolarization [1]: increased
- expression of CD64 on M0, M2a and M2b macrophages after repolarization [2]: increased

B2: IL-10: interleukin-10 (PeproTech), macrophage stimulating cytokine (protein, UniProt P22301 19-178, looked up)
Interleukin-10: SPGQGTQSENSCTHFPGNLPNMLRDLRDAFSRVKTFFQMKDQLDNLLLKESLLEDFKGYLGCQALSEMIQFYLEEVMPQAENQDPDIKAHVNSLGENLKTLRLRLRRCHRFLPCENKSKAVEQVKNAFNKLQEKGIYKAMSEFDIFINYIEAYMTMKIRN
- responsiveness to SIRPaFc (phagocytosis of Toledo cells) of M0, M2a and M2b macrophages after repolarization [1]: increased
- expression of CD64 on M0, M2a and M2b macrophages after repolarization [2]: increased; also recorded: most striking
